Test results reported in patent US20260183274A1, “PDK1 REGULATORY COMPOUND AND COMPOSITION CONTAINING THE SAME” (PROVIBIO CO., LTD., priority 2024, published 2026).

Tests used:
[1] = tested on: T cells isolated from mouse spleens; experiment: T cell proliferation inhibition (CFSE flow cytometry, anti-CD3/anti-CD28 stimulation); assay type: cell-based; details: mouse spleen T cells, 3 days; for inhibition at 0.01 µM / inhibition at 0.1 µM / inhibition at 1 µM / inhibition at 10 µM / inhibition at 30 µM / inhibition at 50 µM: Mus musculus, T-cell, 72 h, read-out: Proliferation inhibition rate (%); for inhibition at 50 µM: compound 50 μM
Summary of the method: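 Proliferation inhibition (%) came from flow cytometry of CFSE dilution after 3 days' culture at 37 °C with compound (10 nM, 100 nM, 1, 10, 30, 50 μM; triplicate wells). Cells were magnetically purified T cells from C57BL/6 mouse spleens, 2×10^5 per well, stimulated with 0.5 μg/mL each anti-CD3 and anti-CD28.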

[2] = tested on: Human B Lymphocyte cell line, SU-DHL-8; experiment: Relative cell viability CCK-8, SU-DHL-8; assay type: cell-based; details: for viability at 1 µM / viability at 10 µM / viability at 30 µM / viability at 50 µM: Homo sapiens, SU-DHL-8, 48 h, 48 hours, untreated (DMSO) = 100%; for viability at 1 µM: read-out: Relative cell viability (%), SU-DHL-8, 1 μM; for viability at 10 µM: read-out: Relative cell viability (%), SU-DHL-8, 10 μM; for viability at 30 µM: read-out: Relative cell viability (%), SU-DHL-8, 30 μM; for viability at 50 µM: read-out: Relative cell viability (%), SU-DHL-8, 50 μM; for Relative cell viability (%), SU-DHL-8: human, 48 h
Protocol: Human-derived B lymphoma cell line SU-DHL-8 (Cat. #CRL-2961) purchased from ATCC was cultured in RPMI-1640 medium containing 10% FBS, 100 U/mL penicillin, and 100 μg/mL streptomycin.
The cell culture medium was then harvested, centrifuged at 1,300 rpm for 5 minutes, and the supernatant was removed. The cells were resuspended in the same medium and dispensed into a 96-well plate (Costar 96-well cell culture plate, Corning) at 90 μL per well, resulting in the conditions specified in Table 5.
Then, 10 μL of CCK-8 was added to each well, and the plates were incubated again at 37° C. in a 5% CO2 incubator for 4 hours.
In other words, when the survival rate of untreated cells (DMSO) is set at 100%, the relative cell survival rate in each group treated with the drug at different concentrations is indicated.

| SMILES | inhibition at 0.01 µM ([1]; compound 10 nM) [%] | inhibition at 0.1 µM ([1]; compound 100 nM) [%] | inhibition at 1 µM ([1]; compound 1 μM) [%] | inhibition at 10 µM ([1]; compound 10 μM) [%] | inhibition at 30 µM ([1]; compound 30 μM) [%] | inhibition at 50 µM [1] [%] | viability at 1 µM [2] [%] | viability at 10 µM [2] [%] | viability at 30 µM [2] [%] | viability at 50 µM [2] [%] | Proliferation inhibition rate (%) ([1]; compound 10 nM, listed as GO83, 0.01 µM) | Relative cell viability (%), SU-DHL-8 ([2]; 30 µM) [%] | Relative cell viability (%), SU-DHL-8 ([2]; 50 µM) [%] | Relative cell viability (%), SU-DHL-8 ([2]; 1 µM) [%] | Relative cell viability (%), SU-DHL-8 ([2]; 10 µM) [%] | Proliferation inhibition rate (%) ([1]; compound 10 nM, listed as KP-64, 0.01 µM) | Proliferation inhibition rate (%) ([1]; compound 100 nM, listed as KP-64, 0.1 µM) | Proliferation inhibition rate (%) ([1]; compound 1 μM, listed as KP-64, 1 µM) | Proliferation inhibition rate (%) ([1]; compound 10 μM, listed as KP-64, 10 µM) | Proliferation inhibition rate (%) ([1]; compound 30 μM, listed as KP-64, 30 µM) |
| --- | --- | --- | --- | --- | --- | --- | --- | --- | --- | --- | --- | --- | --- | --- | --- | --- | --- | --- | --- | --- |
| Nc1ncccc1C(=O)NCCCCCCCCCCCCN1CCSCC1 [Compound 4, 2-Amino-N-(12-thio-morpholin-4-yl-dodecyl)-nicotinamide] | 2.7 | 100 | 100 | 100 | 100 | 100 | 7.58 | 5.49 | 4.68 | 4.45 | – | – | – | – | – | – | – | – | – | – |
| CC(C)CN1CCN(CCCCCCCCCCCCC(=O)Nc2nc(N)c3[nH]cnc3n2)CC1 [Compound 6, 12-[4-(2-methylpropyl)piperazin-1-yl]dodecyl-N-(6-aminopurine-2-yl) carboxamide] | -18.5 | 100 | 100 | 100 | 100 | 100 | 7.83 | 6.39 | 4.66 | 3.94 | – | – | – | – | – | – | – | – | – | – |
| COC(=O)CN1CCN(CCCCCCCCCCCCC(=O)Nc2nc(N)c3[nH]cnc3n2)CC1 [Compound 7, 12-[4-(2-methoxy-2-oxoethyl)piperazin-1-yl]dodecyl-N-(6-aminopurine-2-yl) carboxamide] | 5.14 | 100 | 100 | 100 | 100 | 100 | 5.17 | 4.16 | 3.48 | 3.17 | – | – | – | – | – | – | – | – | – | – |
| Nc1nc(NC(=O)CCCCCCCCCCCCN2CCNCC2)nc2nc[nH]c12 [Compound 8, 12-(piperazin-1-yl)dodecyl-N-(6-aminopurine-2-yl) carboxamide] | 4.55 | 32.5 | 100 | 100 | 100 | 100 | 10.8 | 6.49 | 5.07 | 4.49 | – | – | – | – | – | – | – | – | – | – |
| Nc1nc(NC(=O)CCCCCCCCCCCCN2CCC(O)CC2)nc2nc[nH]c12 [Compound 9, 12-(4-hydroxypiperidin-1-yl)dodecyl-N-(6-aminopurine-2-yl) carboxamide] | – | – | 100 | 100 | 100 | 100 | 5.32 | 4.19 | 3.36 | 3.14 | 38.33 | – | – | – | – | – | – | – | – | – |
| CN1CCN(C(=O)OC(C)(C)C)CC1CCCCCCCCNC(=O)c1cccnc1N (stereo not shown) [Compound 12, tert-Butyl 3-(8-(2-aminonicotinamido)octyl)-4-methylpiperazine-1-carboxylate] | – | – | – | – | – | – | 7.6 | 3.79 | 1.64 | 1.13 | – | – | – | – | – | – | – | – | – | – |
| Nc1ncccc1C(=O)NCCCCCCCCCCCCN1CCCCC1 [Compound 18, 2-amino-N-(12-(piperidin-1-yl)dodecyl)nicotinamide] | 1.87 | 76.1 | 100 | 100 | 100 | 100 | 5.28 | 4.5 | 4.09 | 3.44 | – | – | – | – | – | – | – | – | – | – |
| CN(C)C1CCN(CCCCCCCCCCCCNC(=O)c2cccnc2N)C1 (stereo not shown) [Compound 19, 2-Amino-N-(12-(3-(dimethylamino)pyrrolidin-1-yl)dodecyl)nicotinamide] | -14.4 | 100 | 100 | 100 | 100 | 100 | 8.51 | 7.51 | 5.98 | 5.08 | – | – | – | – | – | – | – | – | – | – |
| Nc1ncccc1C(=O)NCCCCCCCCCCCCN1CCCC1 [Compound 20, 2-Amino-N-(12-(pyrrolidin-1-yl)dodecyl)nicotinamide] | 3.46 | 100 | 100 | 100 | 100 | 100 | 7.74 | 5.34 | 4.89 | 3.68 | – | – | – | – | – | – | – | – | – | – |
| Nc1ncccc1C(=O)NCCCCCCCCCCF [Compound 68, 2-Amino-N-(10-fluoro-decyl)-nicotinamide] | – | – | – | – | – | – | 16.1 | 15.3 | – | – | – | −2.90 | −5.64 | – | – | – | – | – | – | – |
| Nc1ncccc1C(=O)NCCCCCCCCCCCF [Compound 70, 2-Amino-N-(11-fluoro-undecyl)-nicotinamide] | – | – | – | – | – | – | 5.01 | 4.94 | 1.45 | – | – | – | −0.57 | – | – | – | – | – | – | – |
| Cl.Nc1ncccc1C(=O)NCCCCCCCCCCCF [Compound 71, 3-(11-fluoro-undecylcarbamoyl)-pyridin-2-yl-ammonium chloride] | – | – | – | – | – | – | – | – | – | 0.75 | – | 2.04 | – | 5.57 | 4.05 | – | – | – | – | – |
| CN1CCN(CCCCCCCCCCCCNC(=O)c2cnccc2N)CC1 [Compound 212, 4-Amino-N-(12-(4-methylpiperazin-1-yl)dodecyl)nicotinamide] | – | – | – | – | – | – | – | – | – | – | – | – | – | – | – | −2.89 | −3.91 | −4.34 | 20.55 | 71.78 |
| CN1CCN(CCCCCCCCCCCCNC(=O)c2ccc(C(F)(F)F)cc2N)CC1 [Compound 213, 2-Amino-N-(12-(4-methylpiperazin-1-yl)dodecyl)-4-(trifluoromethyl)benzamide] | -0.14 | 6.37 | 8.54 | 100 | 100 | 100 | – | – | – | – | – | – | – | – | – | – | – | – | – | – |
| CN1CCN(CCCCCCCCCCCCNC(=O)c2ccccc2Oc2ccccc2)CC1 [Compound 214, N-(12-(4-methylpiperazin-1-yl)dodecyl)-2-phenoxybenzamide] | 2.32 | 12.2 | 17.4 | 100 | 100 | 100 | – | – | – | – | – | – | – | – | – | – | – | – | – | – |
| CCOc1cc(C(C)(C)C)ccc1C(=O)NCCCCCCCCCCCCN1CCN(C)CC1 [Compound 216, 4-(tert-butyl)-2-ethoxy-N-(12-(4-methylpiperazin-1-yl)dodecyl)benzamide] | 2.03 | 2.32 | 13 | 100 | 100 | 100 | – | – | – | – | – | – | – | – | – | – | – | – | – | – |
| COc1cccc(OC)c1C(=O)NCCCCCCCCCCCCN1CCN(C)CC1 [Compound 218, 2,6-Dimethoxy-N-(12-(4-methylpiperazin-1-yl)dodecyl)benzamide] | 1.31 | 2.74 | 12.4 | 100 | 100 | 100 | – | – | – | – | – | – | – | – | – | – | – | – | – | – |
| Cc1c(Cl)cccc1C(=O)NCCCCCCCCCCCCN1CCN(C)CC1 [Compound 219, 3-Chloro-2-methyl-N-(12-(4-methylpiperazin-1-yl)dodecyl)benzamide] | -5.37 | 2.18 | 3.48 | 66.5 | 100 | 100 | – | – | – | – | – | – | – | – | – | – | – | – | – | – |
